Key:
Assay in all cases: […]cAMP formation from [alpha-32P]ATP, Sf9 membranes
Format in all cases: biochemical
rat AC2 [1] = molecular target: T1, rat AC2 (Rattus norvegicus, UniProt P26769); details: 300 µM; 7 mM Mg2+, 40 μM ATP, 10 μM GTPγS, pH 7.4, 30°C, 3% DMSO
canine AC5 [2] = molecular target: T2, canine AC5 (Canis lupus, UniProt P30803); details: 300 µM; 7 mM Mg2+, 40 μM ATP, 10 μM GTPγS, pH 7.4, 30°C, 3% DMSO
bovine AC1 [3] = molecular target: T3, bovine AC1 (Bos taurus, UniProt P19754); details: 300 µM; 7 mM Mg2+, 40 μM ATP, 10 μM GTPγS, pH 7.4, 30°C, 3% DMSO
T3 sequence (P19754 whole entry): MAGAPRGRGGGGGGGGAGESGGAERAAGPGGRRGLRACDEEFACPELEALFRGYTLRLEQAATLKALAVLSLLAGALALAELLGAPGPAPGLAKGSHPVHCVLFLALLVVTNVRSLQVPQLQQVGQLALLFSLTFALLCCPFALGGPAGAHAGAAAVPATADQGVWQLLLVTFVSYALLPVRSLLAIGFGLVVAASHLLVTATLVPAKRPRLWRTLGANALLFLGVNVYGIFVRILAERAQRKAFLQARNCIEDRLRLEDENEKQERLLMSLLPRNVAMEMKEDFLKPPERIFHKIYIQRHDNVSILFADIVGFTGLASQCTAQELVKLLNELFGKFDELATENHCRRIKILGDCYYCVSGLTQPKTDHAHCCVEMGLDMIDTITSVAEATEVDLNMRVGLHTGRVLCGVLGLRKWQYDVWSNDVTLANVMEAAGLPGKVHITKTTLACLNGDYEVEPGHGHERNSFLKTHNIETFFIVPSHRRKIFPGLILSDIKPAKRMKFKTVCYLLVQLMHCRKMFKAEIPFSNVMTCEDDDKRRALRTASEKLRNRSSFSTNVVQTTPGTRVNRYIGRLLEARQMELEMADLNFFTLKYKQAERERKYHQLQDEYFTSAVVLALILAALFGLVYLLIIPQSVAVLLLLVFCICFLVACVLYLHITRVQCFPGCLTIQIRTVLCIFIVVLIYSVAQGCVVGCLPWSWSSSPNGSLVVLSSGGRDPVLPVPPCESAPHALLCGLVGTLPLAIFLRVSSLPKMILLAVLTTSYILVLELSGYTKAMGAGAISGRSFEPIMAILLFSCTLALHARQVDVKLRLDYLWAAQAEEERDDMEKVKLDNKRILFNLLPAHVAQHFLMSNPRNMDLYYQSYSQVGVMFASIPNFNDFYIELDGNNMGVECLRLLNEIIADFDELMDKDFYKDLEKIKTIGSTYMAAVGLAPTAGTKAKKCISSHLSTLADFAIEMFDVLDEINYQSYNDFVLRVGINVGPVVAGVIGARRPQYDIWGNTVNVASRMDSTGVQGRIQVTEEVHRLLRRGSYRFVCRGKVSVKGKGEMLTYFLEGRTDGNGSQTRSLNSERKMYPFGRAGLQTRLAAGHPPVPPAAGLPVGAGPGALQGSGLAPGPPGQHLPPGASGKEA

canine AC5 [4] = molecular target: T2, canine AC5
bovine AC1 [5] = molecular target: T3, bovine AC1
rat AC2 [6] = molecular target: T1, rat AC2

T1 sequence (P26769 whole entry): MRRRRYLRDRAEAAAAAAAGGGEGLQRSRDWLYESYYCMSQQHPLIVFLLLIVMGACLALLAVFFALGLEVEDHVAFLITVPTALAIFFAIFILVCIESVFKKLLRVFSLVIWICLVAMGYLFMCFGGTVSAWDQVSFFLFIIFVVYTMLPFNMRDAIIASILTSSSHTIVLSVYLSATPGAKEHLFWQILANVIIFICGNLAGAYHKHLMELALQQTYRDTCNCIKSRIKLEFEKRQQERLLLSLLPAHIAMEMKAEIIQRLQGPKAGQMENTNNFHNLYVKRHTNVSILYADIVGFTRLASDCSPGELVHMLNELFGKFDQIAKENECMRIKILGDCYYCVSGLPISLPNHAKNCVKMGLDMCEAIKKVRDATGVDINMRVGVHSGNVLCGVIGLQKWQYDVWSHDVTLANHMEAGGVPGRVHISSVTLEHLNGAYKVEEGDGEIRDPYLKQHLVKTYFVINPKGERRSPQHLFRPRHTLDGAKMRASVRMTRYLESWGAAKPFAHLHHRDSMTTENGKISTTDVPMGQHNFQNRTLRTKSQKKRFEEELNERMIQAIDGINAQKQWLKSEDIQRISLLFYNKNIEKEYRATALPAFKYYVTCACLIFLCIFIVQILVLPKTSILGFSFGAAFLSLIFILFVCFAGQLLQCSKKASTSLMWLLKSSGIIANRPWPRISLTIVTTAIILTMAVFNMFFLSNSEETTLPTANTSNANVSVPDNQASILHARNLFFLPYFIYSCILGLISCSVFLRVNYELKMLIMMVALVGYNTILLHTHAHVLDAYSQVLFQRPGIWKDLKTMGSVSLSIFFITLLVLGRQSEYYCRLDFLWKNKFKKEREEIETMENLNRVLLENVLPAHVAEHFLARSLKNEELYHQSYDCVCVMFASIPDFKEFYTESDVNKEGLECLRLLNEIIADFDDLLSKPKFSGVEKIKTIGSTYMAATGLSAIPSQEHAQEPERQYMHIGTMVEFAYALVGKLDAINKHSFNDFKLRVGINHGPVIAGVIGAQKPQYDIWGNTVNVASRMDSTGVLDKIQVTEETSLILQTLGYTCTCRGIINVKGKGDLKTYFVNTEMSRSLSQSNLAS
T2 sequence (P30803 whole entry): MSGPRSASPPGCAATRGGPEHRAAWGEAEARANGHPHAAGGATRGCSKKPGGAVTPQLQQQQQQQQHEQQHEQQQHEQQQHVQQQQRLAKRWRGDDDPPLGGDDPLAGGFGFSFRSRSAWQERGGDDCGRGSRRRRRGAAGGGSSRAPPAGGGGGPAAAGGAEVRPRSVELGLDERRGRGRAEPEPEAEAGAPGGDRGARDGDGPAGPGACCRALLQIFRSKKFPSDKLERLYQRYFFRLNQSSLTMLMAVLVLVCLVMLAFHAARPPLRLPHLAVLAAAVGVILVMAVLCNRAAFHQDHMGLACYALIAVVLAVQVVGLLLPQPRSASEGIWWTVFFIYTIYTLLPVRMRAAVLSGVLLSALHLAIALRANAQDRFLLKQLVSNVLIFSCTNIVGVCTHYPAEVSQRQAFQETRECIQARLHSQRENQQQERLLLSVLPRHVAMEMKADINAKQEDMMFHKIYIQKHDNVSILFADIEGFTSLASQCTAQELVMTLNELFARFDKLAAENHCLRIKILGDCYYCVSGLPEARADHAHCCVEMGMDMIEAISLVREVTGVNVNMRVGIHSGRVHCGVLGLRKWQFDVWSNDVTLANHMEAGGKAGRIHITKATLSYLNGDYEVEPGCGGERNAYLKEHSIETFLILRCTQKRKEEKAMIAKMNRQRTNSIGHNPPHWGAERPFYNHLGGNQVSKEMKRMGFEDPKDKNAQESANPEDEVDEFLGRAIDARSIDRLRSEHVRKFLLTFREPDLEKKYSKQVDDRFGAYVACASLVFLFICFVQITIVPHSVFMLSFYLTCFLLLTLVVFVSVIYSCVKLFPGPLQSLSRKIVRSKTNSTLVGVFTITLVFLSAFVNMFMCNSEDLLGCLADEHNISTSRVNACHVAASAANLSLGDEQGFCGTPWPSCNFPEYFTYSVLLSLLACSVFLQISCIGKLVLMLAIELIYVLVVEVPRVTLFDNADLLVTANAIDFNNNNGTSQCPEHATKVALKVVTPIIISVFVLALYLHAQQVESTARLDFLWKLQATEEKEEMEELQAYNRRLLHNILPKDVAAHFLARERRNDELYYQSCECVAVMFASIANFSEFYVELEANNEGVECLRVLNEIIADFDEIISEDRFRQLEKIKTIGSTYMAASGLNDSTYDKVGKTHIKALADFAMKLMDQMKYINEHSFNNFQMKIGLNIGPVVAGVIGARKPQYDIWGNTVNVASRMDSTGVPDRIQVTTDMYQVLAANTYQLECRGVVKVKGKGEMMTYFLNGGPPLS

SMILES	AC2 / Efficacy [%] (rat AC2 [1])	AC5 / Efficacy [%] (canine AC5 [2])	AC1 / Efficacy [%] (bovine AC1 [3])	EC50 (canine AC5 [4]) [µM]	EC50 (bovine AC1 [5]) [µM]	EC50 (rat AC2 [6]) [µM]
C=C[C@@]1(C)CC(=O)[C@]2(O)[C@@]3(C)CCCC(C)(C)[C@@H]3[C@H](O)[C@H](OC(C)=O)[C@@]2(C)O1 [1d-FS]	1.7 ± 3.4	14.7 ± 4.4	11.1 ± 4.7			
C=C[C@@]1(C)CC(=O)[C@]2(O)[C@@]3(C)[C@@H](O)CCC(C)(C)[C@@H]3[C@H](OC(C)=O)[C@H](O)[C@@]2(C)O1 [6A7DA-FS]				52.1 ± 16.7	6.5 ± 2.1	1.8
C=C[C@@]1(C)CC(=O)[C@H]2[C@](C)(O1)[C@@H](OC(C)=O)[C@@H](O)[C@H]1C(C)(C)CC[C@H](O)[C@@]12C [9d-FS]				77.8 ± 46.1	16.8 ± 3	242 ± 113
C=C[C@@]1(C)CC(=O)[C@]2(O)[C@@]3(C)[C@@H](O)CCC(C)(C)[C@@H]3[C@H](O)[C@H](OC(C)=O)[C@@]2(C)O1 [FS]				4.6 ± 1.5	5.5 ± 0.8	47.3 ± 8.1
